From patent publication US12344603B2 (Genentech, Inc., priority 2020, dated 2025)

These compounds were tested against IRE1α (Homo sapiens (Human), UniProt O75460, D688N) (assay: IRE1α TR-FRET competition binding assay (IRE1α HTRF)). Conditions: TR-FRET competition binding to kinase domain of IRE1α.
Procedure, shortened: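 Competition of compounds against an Alexa fluor 647 ATP-site probe (2 nM final) for the His-tagged kinase domain (0.25 nM final), detected via 2 nM Eu anti-His antibody by TR-FRET, 665 and 615 nm emission. Protein–antibody premix 1 h, 4° C; reaction 1 h, room temperature, pH 7.5 HEPES buffer.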

Sequence of IRE1α (O75460 547-977 D688N): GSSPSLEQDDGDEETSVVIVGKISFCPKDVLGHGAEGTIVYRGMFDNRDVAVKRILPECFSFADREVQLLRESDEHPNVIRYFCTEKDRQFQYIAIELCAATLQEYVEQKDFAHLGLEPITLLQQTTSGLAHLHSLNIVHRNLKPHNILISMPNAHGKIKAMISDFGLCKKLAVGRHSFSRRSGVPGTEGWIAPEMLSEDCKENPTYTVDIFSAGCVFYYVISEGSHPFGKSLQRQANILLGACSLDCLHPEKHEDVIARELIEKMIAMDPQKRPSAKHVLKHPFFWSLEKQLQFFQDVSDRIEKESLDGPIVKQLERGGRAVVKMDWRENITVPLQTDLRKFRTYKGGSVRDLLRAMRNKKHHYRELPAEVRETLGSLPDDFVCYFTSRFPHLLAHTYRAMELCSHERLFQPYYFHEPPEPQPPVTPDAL

| SMILES | IC50 [nM] |
| --- | --- |
| CC(C)n1c(=O)c(-c2ccc(NS(=O)(=O)N3CCCC3)c(F)c2)nc2cnc(N[C@@H]3CNC[C@@H](F)C3)nc21 [Compound 163, N-(2-Fluoro-4-(2-(((3S,5S)-5-fluoropiperidin-3-yl)amino)-8-isopropyl-7-oxo-7,8-dihydropteridin-6-yl)phenyl)pyrrolidine-1-sulfonamide] | 0.97 |
| Cc1nc(NS(=O)(=O)c2cccc(C#N)c2)ccc1-c1cc2cnc(N[C@H]3CC[C@H](N(C)C)CC3)nc2n(C(C)C)c1=O [Compound 142, 3-Cyano-N-(5-(2-(((1r,4r)-4-(dimethylamino)cyclohexyl)amino)-8-isopropyl-7-oxo-7,8-dihydropyrido[2,3-d]pyrimidin-6-yl)-6-methylpyridin-2-yl)benzenesulfonamide] | 0.69 |

Further lines, results first:

| IC50 [nM] | SMILES |
| --- | --- |
| 0.2 | CC(C)n1c(=O)c(-c2cc(F)c(NS(=O)(=O)CCC(F)(F)F)c(F)c2)nc2cnc(N[C@H]3CC[C@H](N(C)C)CC3)nc21 [Example 239, N-[4-[2-[[4-(Dimethylamino)cyclohexyl]amino]-8-isopropyl-7-oxo-pteridin-6-yl]-2,6-difluoro-phenyl]-3,3,3-trifluoro-propane-1-sulfonamide] |
| 0.3 | Cc1nc(NS(=O)(=O)c2ccccc2Cl)ccc1-c1nc2cnc(N[C@H]3CC[C@H](N(C)C)CC3)nc2n(C(C)C)c1=O [Example 254, N-[5-[2-[[4-(Dimethylamino)cyclohexyl]amino]-8-isopropyl-7-oxo-pteridin-6-yl]-6-methyl-2-pyridyl]-2-chloro-benzenesulfonamide] |
| 0.1 | CC(C)n1c(=O)c(-c2cc(F)c(NS(=O)(=O)Cc3ccccc3)c(F)c2)nc2cnc(N[C@H]3CC[C@H](N(C)C)CC3)nc21 [Example 247, N-[4-[2-[[4-(Dimethylamino)cyclohexyl]amino]-8-isopropyl-7-oxo-pteridin-6-yl]-2,6-difluoro-phenyl]-1-phenyl-methanesulfonamide] |
| 0.2 | CC(C)n1c(=O)c(-c2ccc(NS(=O)(=O)CCC3CC3(F)F)c(F)c2)nc2cnc(N[C@H]3CC[C@H](N(C)C)CC3)nc21 (stereo partly drawn) [Example 259, 2-(2,2-Difluorocyclopropyl)-N-[4-[2-[[4-(dimethylamino)cyclohexyl]amino]-8-isopropyl-7-oxo-pteridin-6-yl]-2-fluoro-phenyl]ethanesulfonamide] |
